Measurements taken from patent publication EP1260509A1, “Uses of tocopherol esters” (Derma Developpement S.A.R.L., priority 2001, dated 2002).

What was measured:
tyrosine kinase = molecular target: T1, tyrosine kinase (Homo sapiens, UniProt P14679); assay: Tyrosine kinase (tyrosinase) activity in human melanocytes, L-Dopamine substrate, absorbance at 475 nm; type: cell-based, humains; settings: hydroquinone 1 µg/mL (positive control), 72 h; témoin 0.044 ± 0.002
T1 construct: endogenous in cells; host or cells: human melanocytes (cultured)
T1 sequence (P14679 19-529): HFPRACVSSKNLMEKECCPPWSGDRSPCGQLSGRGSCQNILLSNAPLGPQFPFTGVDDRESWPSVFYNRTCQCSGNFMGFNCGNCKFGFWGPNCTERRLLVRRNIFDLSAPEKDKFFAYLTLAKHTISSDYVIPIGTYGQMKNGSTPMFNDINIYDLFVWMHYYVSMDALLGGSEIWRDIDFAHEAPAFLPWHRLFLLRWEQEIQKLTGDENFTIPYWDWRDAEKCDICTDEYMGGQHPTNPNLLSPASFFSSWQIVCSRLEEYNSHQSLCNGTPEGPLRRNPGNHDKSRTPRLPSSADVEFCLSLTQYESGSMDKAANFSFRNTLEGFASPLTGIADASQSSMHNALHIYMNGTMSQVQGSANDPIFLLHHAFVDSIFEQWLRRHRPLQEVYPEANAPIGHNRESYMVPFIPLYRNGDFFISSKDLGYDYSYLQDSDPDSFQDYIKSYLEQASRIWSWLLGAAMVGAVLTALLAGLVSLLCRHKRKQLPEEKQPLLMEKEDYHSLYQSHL
Method: Les mélanocytes humains sont ensemencés à la densité de 50 000 cellules/cm^2 dans des plaques multipuits. Les cellules sont incubées à 37°C en atmosphère humide contenant 5% (v/v) de CO2. Le milieu de culture est le MCDB 153 supplémenté par l'EGF (5 ng/mL) (Sigma), l'insuline (5 µg/mL)(Sigma), l'hydrocortisone (5 ng/mL)(Sigma),du sérum de veau foetal (SVF) à 5 % (v/v)( Gibco). Le milieu de culture est remplacé après 24 heures de culture et supplémenté par des antibiotiques (Peni-Strepto)(Gibco) à 1% (V/v) contenant les différentes concentrations d'un ester de tocophéryle avec un acide gras mono ou polyinsaturé ( 1, 10 et 100 µg/mL).
Une série « témoin positif» est constituée de cellules traitées à l'hydroquinone à 1 µg/mL.
Les cellules sont incubées pendant 72 heures à 37°C en atmosphère humide contenant 5% (v/v) de CO2. A la fin de la période d'incubation, le milieu de culture est prélevé et la couche cellulaire rincée deux fois avec du PBS. 450 µL de Triton X100 à 1% (v/v) dans le PBS sont ajouté dans chaque puits. On agite pendant 10 minutes puis on ajoute 50 µL de L-Dopamine à 10 mM dans du PBS sans Ca^++ ni Mg ^++
On laisse incuber pendant 1 heure à 37°C à l'abri de la lumière, puis on mesure l'absorption à 475 nm au spectrophotomètre. Tableau 1

[1] = system: fibroblastes de derme humain; assay: Mitochondrial activity of human dermal fibroblasts (rhodamine 123 fluorescence, semi-quantitative score); type: cell-based; settings: antimycine 0,5 µM (positive control), 72 h
Method: Les fibroblastes de derme humain sont ensemencées à la densité de 5000 cellules/cm^2 dans 500 µl de milieu IMDM supplémenté par du SVF 10% pendant 24 heures en atmosphère humide contenant 5% (v/v) de CO2
Après 24 heures, les cellules sont mises en contact avec les différentes concentrations d'un ester de tocophéryle avec un acide gras mono ou polyinsaturé ( 10, 50 et 100 µg/ml).
Une série « témoin positif» est constituée de cellules traitées à l'antimycine à 0,5 µM.
Principe : L'incorporation cellulaire de rhodamine 123 est la conséquence de la variation du potentiel transmembranaire mitochondrial. L'évaluation semi-quantitative de la respiration mitochondriale est basée sur l'intensité de la fluorescence à l'intérieur de la cellule.
Les cellules sont incubées pendant 72 heures à 37°C en atmosphère humide contenant 5% (v/v) de CO2. A la fin de la période d'incubation, le milieu de culture est prélevé et la couche cellulaire rincée deux fois avec du milieu IMDM puis mise dans 500 µl de tampon phosphate pH 7.2 contenant 0.1 mg/ml de rhodamine 123.
On laisse incuber pendant 15 minutes à 37 °C, puis on mesure la fluorescence de façon semi-quantitative à l'aide d'une échelle de cotation.
Echelle de cotation (Intensité de fluorescence) : 0 : cytoplasme non fluorescent, 1 : faible; 2 : moyennement intense; 3 : Importante; 4 : Très importante, tout le cytoplasme est fluorescent.

| Molecule | moyenne absorbance à 475 nm (tyrosine kinase) | cellules, intensité de fluorescence 4 : Très importante, tout le cytoplasme est fluorescent ([1]; témoin 12,3 ± 2,1) | cellules, intensité de fluorescence 0 : cytoplasme non fluorescent ([1]; témoin 17,7 ± 2,1) | cellules, intensité de fluorescence 1 : faible ([1]; témoin 21,0 ± 2,9) | cellules, intensité de fluorescence 2 : moyennement intense ([1]; témoin 25,0 ± 2,4) | cellules, intensité de fluorescence 3 : Importante ([1]; témoin 25,7 ± 3,1) |
| --- | --- | --- | --- | --- | --- | --- |
| Oc1ccc(O)cc1 [hydroquinone] | 0.024 ± 0.001 |  |  |  |  |  |
| antimycine |  | 10,7 ± 2,5 | 25,0 ± 4,1 | 16,3 ± 1,9 | 20,0 ± 1,6 | 13,3 ± 2,4 |
